Earlier results on one molecule are cited in patent publication US20230045688A1 (priority 2020, published 2023).

The test system of the series is SARS-CoV. The conditions noted are these: disruption of oligosaccharide formation; Vincent et al. 2005; Savarino et al. 2006.

Consider `CCN(CC)CCCC(C)Nc1ccnc2cc(Cl)ccc12` (stereo not shown) [chloroquine], for which the SARS-CoV infectivity entry was “significantly decreases SARS-CoV infectivity”.
